Where “and” joins values, the source holds several entries; their conditions need not be identical. Identical values can stand only once.
Experiments:
[1] = tested on: Mouse Neuro2A neuroblastoma cells; test: Neuro2A cells with neurites after GGTI-298 (Example 16); type: cell-based; settings: 10 μM
Protocol: Mouse Neuro2A neuroblastoma cells were cultured in DMEM supplemented with 10% FBS for 24 hrs. […] Then differentiation was induced by retinoic acid in DMEM supplemented with 2% FBS. The cell culture was incubated with a Geranylgeranyl Transferase inhibitor, GGTI-298. After 24 hrs incubation, cells with neurites were counted.

[2] = tested on: Neuro2A cells; test: Neuro2A cells that extended neurites, with GGTI-298 (Example 18); type: cell-based; settings: 0.1-1 μM; vehicle 0.0-0.20
Excerpt: After differentiation was induced, cells that extended neurites were counted.

[3] = Pharmacokinetics of CNS-102 in rats (IV, oral); type: in vivo; settings: rat
Protocol: Rats were administered a single dose of CNS-102 either intravenously (12 mg/kg) or orally (24 mg/kg), and blood samples were taken to measure the average plasma concentrations of CNS-102 over time.
The formulation for this study includes the following: […]
Formulations: (Dose: 24 mg/kg; Study Date: 4-16-2012)

[4] = tested on: HSP70; test: HSP70 expression in cortex and hippocampus in vivo, western blot; set-up: species or system rat; HSP70 Expression (average, western blot): scale not given here; settings: for delta HSP70 expression, CNS-102 minus PBS: 12 mg/kg oral
Protocol: The time course of protein expression, as measured by western blot for HSP70, was determined in triplicate for hippocampus, and cortex tissue samples taken from each of 5 animals per group at each of four time points (24, 48, 72, and 96 h) after treatment with either PBS or 12 mg/kg CNS-102, administered orally. The average expression for each treatment group is calculated at each time point for each tissue using PROC MIXED in SAS and are tabulated, along with the difference (delta) between treatment averages and a p-value comparing the difference to zero, below.

[5] = tested on: HSP70; test: HSP70 gene expression in rat brain tissue, qRT-PCR; type: in vivo; settings: 12 mg/kg oral
Protocol: […] Expression of selected HSPs was detected using qRT-PCR with expression of the GAPDH gene used as the control. To represent the effect of CNS-102 on HSP expression, mean fold change is calculated as CNS-102 treated/PBS treated for each HSP at each time point.

[6] = tested on: SOD1 mice; test: Survival in the SOD1 mouse model of ALS; type: in vivo
[7] = tested on: Rap1; test: Prenylation of Rap1 in Neuro2A cells, western blotting; type: cell-based, mouse; settings: 100 nM
Procedure, shortened: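 Mouse Neuro2A cells in DMEM/10% FBS were treated with compound for 24 h, then GGTI-298 was added for a further 24 h. Un-prenylated and total Rap1 were quantified by western blot, normalized to GAPDH; the un-prenylated/total ratio was expressed as percent of GGTI-only control, mean of two biological repeats.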

[8] = tested on: HSP70; test: HSP70 induction in rat hippocampus with or without kainic acid injection (immunohistochemistry, western blot); type: in vivo; settings: KA stereotactically injected in hippocampus; localized in the injection site
Protocol: Stereotactic injections of Kainic acid into rat hippocampus tissues led to increased damages in neurons. […] Under this condition, neurons and HSP70 expression was stained by immunohistochemistry techniques. HSP70 expression was induced in a very specific area only that KA was injected. The induced area was not stained by HSP70 antibody when KA was not injected, but CNS-102 was dosed.
HSP70 induction by dosing CNS-102 in the absence of the KA injection was limited in western blot experiments using hippocampus lysates. 120% or 130% of HSP70 expression could be seen by comparing those of vehicle dosing control experiments.

[9] = 12 mg/kg IV, individual rats 1-3, 12 mg/kg
[10] = 12 mg/kg IV, individual rats 2, 3, 12 mg/kg
[11] = 24 mg/kg oral vs 12 mg/kg IV, average
[12] = 24 mg/kg oral, individual rats 4-6, 24 mg/kg

CC(=O)CC/C=C(\C)CC/C=C(\C)CC/C=C(\C)CCC=C(C)C [CNS-102]
Mean of cell numbers (cells with neurites) [1]: 0.738 Arbitrary units
Mean of cell numbers (cells that extended neurites) [2]: 0.45-0.65 Arbitrary units
Plasma Concentration of CNS-102 ([3]; 12 mg/kg IV, 5 min, average): 2402.5 ng/mL
Plasma Concentration of CNS-102 ([3]; 12 mg/kg IV, 5 min, individual rats 1-3, 12 mg/kg): 1268.2 ng/mL and 4087.5 ng/mL
Plasma Concentration of CNS-102 ([3]; 12 mg/kg IV, 10 min, average): 869.6 ng/mL
Plasma Concentration of CNS-102 ([3]; 12 mg/kg IV, 10 min, individual rats 1-3, 12 mg/kg): 227.0 ng/mL and 929.0 ng/mL
Plasma Concentration of CNS-102 ([3]; 12 mg/kg IV, 20 min, average): 518.9 ng/mL
Plasma Concentration of CNS-102 ([3]; 12 mg/kg IV, 20 min, individual rats 1-3, BQL set to zero, 12 mg/kg): 0.00 ng/mL and 652.7 ng/mL
Plasma Concentration of CNS-102 ([3]; 12 mg/kg IV, 30 min, average): 334.7 ng/mL
Plasma Concentration of CNS-102 ([3]; 12 mg/kg IV, 30 min, individual rats 1-3, BQL set to zero): 0.00 ng/mL
Plasma Concentration of CNS-102 ([3]; 12 mg/kg IV, 60 min, average): 325.8 ng/mL
Plasma Concentration of CNS-102 ([3]; 12 mg/kg IV, 60 min, individual rats 1-3, BQL set to zero): 0.00 ng/mL
Plasma Concentration of CNS-102 ([3]; 12 mg/kg IV, 120 min, average): 150.2 ng/mL
Plasma Concentration of CNS-102 ([3]; 12 mg/kg IV, 120 min, individual rats 1-3, BQL set to zero): 0.00 ng/mL
Plasma Concentration of CNS-102 ([3]; 12 mg/kg IV, 240 min, average): 209.0 ng/mL
Plasma Concentration of CNS-102 ([3]; 12 mg/kg IV, 240 min, individual rats 1-3, BQL set to zero): 0.00 ng/mL
Plasma Concentration of CNS-102 ([3]; 12 mg/kg IV, 480 min, average): 77.4 ng/mL
Plasma Concentration of CNS-102 ([3]; 12 mg/kg IV, 480 min, individual rats 1-3, BQL set to zero): 0.00 ng/mL
Plasma Concentration of CNS-102 ([3]; 12 mg/kg IV, 720 min, average): 0.0 ng/mL
Plasma Concentration of CNS-102 ([3]; 12 mg/kg IV, 720 min, individual rats 1-3, BQL set to zero): 0.00 ng/mL
AUC(0-inf) ([3]; 12 mg/kg IV, average): 208728 ng·min/mL
AUC(0-last) ([3]; 12 mg/kg IV, average): 115146 ng·min/mL
C0 ([3]; 12 mg/kg IV, average): 9144.0 ng/mL
Vss ([3]; 12 mg/kg IV, average): 9.796 L/kg
Vz ([3]; 12 mg/kg IV, average): 12.039 L/kg
t1/2 ([3]; 12 mg/kg IV, average): 2.45 h
AUC(0-last) [3, 9]: 19934.3 ng·min/mL and 95802.8 ng·min/mL and 229701.4 ng·min/mL
C0 [3, 9]: 7086.8 ng/mL and 17984.5 ng/mL and 2360.7 ng/mL
AUC(0-inf) [3, 10]: 115420.9 ng·min/mL and 302035.6 ng·min/mL
Vss [3, 10]: 6.0519 L/kg and 13.5396 L/kg
Vz [3, 10]: 11.6998 L/kg and 12.3785 L/kg
t1/2 [3, 10]: 1.3 h and 3.6 h
F (0-inf) [3, 11]: 49.1%
F (0-last) [3, 11]: 82.1%
Plasma Concentration of CNS-102 ([3]; 24 mg/kg oral, 10 min, average): 0.0 ng/mL
Plasma Concentration of CNS-102 ([3]; 24 mg/kg oral, 10 min, individual rats 4-6, BQL set to zero): 0 ng/mL
Plasma Concentration of CNS-102 ([3]; 24 mg/kg oral, 30 min, average): 193.3 ng/mL
Plasma Concentration of CNS-102 ([3]; 24 mg/kg oral, 30 min, individual rats 4-6, 24 mg/kg): 193.8 ng/mL and 224.3 ng/mL and 161.8 ng/mL
Plasma Concentration of CNS-102 ([3]; 24 mg/kg oral, 60 min, average): 576.8 ng/mL
Plasma Concentration of CNS-102 ([3]; 24 mg/kg oral, 60 min, individual rats 4-6, 24 mg/kg): 331.9 ng/mL and 500.2 ng/mL
Plasma Concentration of CNS-102 ([3]; 24 mg/kg oral, 120 min, average): 176.8 ng/mL
Plasma Concentration of CNS-102 ([3]; 24 mg/kg oral, 120 min, individual rats 4-6): 147.6 ng/mL
Plasma Concentration of CNS-102 ([3]; 24 mg/kg oral, 240 min, average): 298.0 ng/mL
Plasma Concentration of CNS-102 ([3]; 24 mg/kg oral, 240 min, individual rats 4-6, BQL set to zero): 0 ng/mL
Plasma Concentration of CNS-102 ([3]; 24 mg/kg oral, 480 min, average): 489.7 ng/mL
Plasma Concentration of CNS-102 ([3]; 24 mg/kg oral, 720 min, average): 47.2 ng/mL
Plasma Concentration of CNS-102 ([3]; 24 mg/kg oral, 720 min, individual rats 4-6, BQL set to zero): 0 ng/mL
Plasma Concentration of CNS-102 ([3]; 24 mg/kg oral, 1440 min, average): 0.0 ng/mL
Plasma Concentration of CNS-102 ([3]; 24 mg/kg oral, 1440 min, individual rats 4-6, BQL set to zero): 0 ng/mL
AUC(0-inf) ([3]; 24 mg/kg oral, average): 204878 ng·min/mL
AUC(0-last) ([3]; 24 mg/kg oral, average): 189114 ng·min/mL
Cmax ([3]; 24 mg/kg oral, average): 752.9 ng/mL
Tmax ([3]; 24 mg/kg oral, average): 340 min
t1/2 ([3]; 24 mg/kg oral, average): 1.72 h
AUC(0-inf) [3, 12]: 234242 ng·min/mL and 157666 ng·min/mL and 222724 ng·min/mL
AUC(0-last) [3, 12]: 214144 ng·min/mL and 130474 ng·min/mL and 222724 ng·min/mL
Cmax [3, 12]: 768 ng/mL and 898.2 ng/mL and 592.5 ng/mL
F (0-inf) [3, 12]: 56.1% and 37.8% and 53.4%
F (0-last) [3, 12]: 93.0% and 56.7% and 96.7%
Tmax [3, 12]: 480 min (2×) and 60 min
t1/2 [3, 12]: 1.64 h and 2.895 h and 0.613 h
HSP70 Expression (average, western blot) ([4]; Cortex, 24 hours after 12 mg/kg oral, PBS −0.256): −0.016
delta HSP70 expression, CNS-102 minus PBS ([4]; Cortex, 24 hours): 0.24
HSP70 Expression (average, western blot) ([4]; Cortex, 48 hours after 12 mg/kg oral, PBS −0.56): −0.45
delta HSP70 expression, CNS-102 minus PBS ([4]; Cortex, 48 hours): 0.11
HSP70 Expression (average, western blot) ([4]; Cortex, 72 hours after 12 mg/kg oral, PBS 0.01): 0.14
delta HSP70 expression, CNS-102 minus PBS ([4]; Cortex, 72 hours): 0.13
HSP70 Expression (average, western blot) ([4]; Cortex, 96 hours after 12 mg/kg oral, PBS −0.15): 0.04
delta HSP70 expression, CNS-102 minus PBS ([4]; Cortex, 96 hours): 0.19
HSP70 Expression (average, western blot) ([4]; Hippocampus, 24 hours after 12 mg/kg oral, PBS −0.072): −0.159
delta HSP70 expression, CNS-102 minus PBS ([4]; Hippocampus, 24 hours): −0.088
HSP70 Expression (average, western blot) ([4]; Hippocampus, 48 hours after 12 mg/kg oral, PBS −0.18): 0.02
delta HSP70 expression, CNS-102 minus PBS ([4]; Hippocampus, 48 hours): 0.2
HSP70 Expression (average, western blot) ([4]; Hippocampus, 72 hours after 12 mg/kg oral, PBS −0.2): −0.06
delta HSP70 expression, CNS-102 minus PBS ([4]; Hippocampus, 72 hours): 0.14
HSP70 Expression (average, western blot) ([4]; Hippocampus, 96 hours after 12 mg/kg oral, PBS −0.49): −0.32
delta HSP70 expression, CNS-102 minus PBS ([4]; Hippocampus, 96 hours): 0.17
HSP70 mean fold change (CNS-102 treated/PBS treated), mean ± SD ([5]; 24 h): 1.18 ± 0.01
HSP70 mean fold change (CNS-102 treated/PBS treated), mean ± SD ([5]; 48 h): 1.48 ± 0.02
HSP70 mean fold change (CNS-102 treated/PBS treated), mean ± SD ([5]; 72 h): 1.81 ± 0.01
HSP70 mean fold change (CNS-102 treated/PBS treated), mean ± SD ([5]; 96 h): 1.58 ± 0.03
Median Survival ([6]; CNS-102 12 mg/kg or riluzole 8 mg/kg daily oral from P38, vehicle 125.0): 133.0 days
% Increase in median time to death compared to vehicle group ([6]; parametric regression (gamma distribution)): 9% and 9.5%
prenylation of Rap1 compared to control ([7]; student's t-test, P=0.08): slightly increase the prenylation of Rap1
unprenylated/total RAP1 (%) ([7]; with GGTI-298, percentage of control (GGTI only)): 59%
HSP70 induction [8]: strong induction of HSP70

Reference: patent US20150025077A1 (COYOTE PHARMACEUTICALS, INC., priority 2012, published 2015)
